Test results taken from paper PMC8698377, “In Vitro Hepatic Assessment of Cineole and Its Derivatives in Common Brushtail Possums (Trichosurus vulpecula) and Rodents” (Biology, 2021).

Assays:
UGT [1] = test: p-nitrophenol glucuronidation, possum hepatic microsomes; assay type: in vitro ADME, possum (Trichosurus vulpecula)
Description: (§1) Microsomal preparation was as previously outlined. Individual livers were placed in beakers containing 1.15% KCl. All the procedures were carried out at 0–4 °C. The liver samples were minced and homogenised in buffer A (0.1 M Tris, 0.1 M potassium chloride, 1 mM EDTA, and 20 μM butylated hydroxytoluene, at pH = 7.4) using the Teflon-glass homogeniser (5–6 vertical passes). The samples were centrifuged for 20 min at 10,000× g. The supernatant was then transferred into another set of centrifuge tubes and spun for 60 min at 100,000× g. The pellet was resuspended in Buffer B (0.1 M potassium pyrophosphate, 1 mM EDTA, and 20 μM butylated hydroxytoluene, at pH = 7.4), homogenised and recentrifuged for 60 min at 100,000× g. Finally, the pellet was homogenised in 1–2 mL of Buffer C (10 mM Tris-HCl, 1 mM EDTA, and 4% glycerol (v/v)) and stored at […] until used. The protein concentration of the microsomes was determined using the Bicinchoninic acid (BCA) method.
(§2) The rate of p-nitrophenol glucuronidation was determined as previously reported. In short, the incubation mixture (500 µL in total) contained; 100 µL of 1 mg/mL microsomes, 50 µL of 1 M Tris-HCl (pH = 7.4), 20 µL of 0.25% (v/v) Triton-X 100, 50 µL of 50 mM MgCl2, 130 µL of double distilled water, 50 µL of 5 mM p-nitrophenol, 50 µL of the test compound, and 50 µL of uridine 5′-diphosphoglucuronic acid trisodium salt (UDPGA). The blank tubes had all components except UDPGA and microsomes; instead, 150 µL of 0.1 M phosphate buffer was added to equal the volume as the reaction mixture. The reaction mixture and the blank were incubated at 37 °C for 2 min. Then, 50 µL of 30 mM UDPGA was added to initiate the reaction which proceeded at 37 °C for 30 min (optimised incubation time). The reaction was stopped using 1 mL of 5% trichloroacetic acid (TCA). The tubes were centrifuged at 1800 g for 10 min and then 1 mL of supernatant was added to 250 µL of 2 M sodium hydroxide (NaOH). The absorbance was read at 405 nm. The sample reading was subtracted from the blank absorbance and divided by the extinction coefficient of p-nitrophenol ([…]) and the light path of the spectrophotometer (1 cm). The glucuronidation activities are expressed in µmol/mg/min and are the mean ± SEM of 3 independent experiments conducted in duplicate.

CYP3A [2] = test: CYP3A catalytic activity (erythromycin-N-demethylation), mouse hepatic microsomes; assay type: in vitro ADME; settings: for activity at 30 min, 12.5 µM / activity at 30 min, 25 µM: read-out: CYP3A catalytic activity, % of Control
Description: as §1
(§3) CYP3A catalytic activity was determined using the erythromycin-N-demethylation activity assay as described previously. The reaction mixture (final volume of 1 mL and final protein concentration of 1 mg) contained 500 µL of microsomes in 0.1 M phosphate buffer (pH = 7.4), 400 µL of erythromycin buffer (0.45 mM), and 50 µL of the test compound was pre-warmed at 37 °C for 2 min. The reaction was initiated with 50 µL of 2.5 mM […] and incubated at 37 °C for 30 min (optimised incubation time). The reaction was stopped with the addition of 330 µL of 15% zinc sulphate. Tubes were vortexed and left for 5 min (at room temperature) and then 330 µL of saturated barium hydroxide was added. Tubes were further vortexed and left for 5 min (at room temperature). Tubes were then centrifuged at 1800 g for 10 min. To 830 µL of the supernatant, 330 µL of Nash reagent (30% (w/v) ammonium acetate, 0.4% (v/v) acetyl acetone) was added and further incubated at 60 °C for 30 min. The blank tube contained 330 µL of Nash reagent and 830 µL of Milli-Q-water. The tubes were centrifuged again at 1800× g for 10 min and the absorbance was read at 415 nm. Results presented are the mean ± SEM of 3 independent experiments conducted in duplicate.

CYP3A [3] = test: CYP3A catalytic activity (erythromycin-N-demethylation), possum hepatic microsomes; assay type: in vitro ADME, possum (Trichosurus vulpecula); settings: for activity at 30 min, 12.5 µM / activity at 30 min, 25 µM: possum (Trichosurus vulpecula), liver microsomes, pH 7.4, probe erythromycin, read-out: CYP3A catalytic activity, % of Control
Description: as §1, §3

CYP3A [4] = test: CYP3A catalytic activity (erythromycin-N-demethylation), rat hepatic microsomes; assay type: in vitro ADME; settings: for activity at 30 min, 12.5 µM / activity at 30 min, 25 µM: liver microsomes, pH 7.4, probe erythromycin, read-out: CYP3A catalytic activity, % of Control
Description: as §1, §3

UGT [5] = test: p-nitrophenol glucuronidation, mouse hepatic microsomes; assay type: in vitro ADME
Description: as §1, §2

UGT [6] = test: p-nitrophenol glucuronidation, rat hepatic microsomes; assay type: in vitro ADME
Description: as §1, §2

mice = test system: mice; set-up: method as in earlier work; settings: cited from earlier work
rats = test system: rats; set-up: method as in PMID 6068552; settings: cited from earlier work
[7] = test system: CYP enzymes (preferably CYP3A); set-up: method as in PMID 11465406; settings: possums; cited from earlier work
humans = test system: humans; set-up: method as in PMID 7651249; settings: cited from earlier work
dogs = settings: cited from earlier work
possums = test system: possums; set-up: method as in doi:10.1023/A:1020863216892; settings: cited from earlier work
CYP3A [8] = settings: possum vs human liver microsomes; cited from earlier work
[9] = liver microsomes, pH 7.4, probe erythromycin, 12.5 µM
[10] = liver microsomes, pH 7.4, probe erythromycin, 25 µM

Compound | p-nitrophenol glucuronidation activity (UGT [1]; 12.5 µM) | p-nitrophenol glucuronidation, % of Control (UGT [1]; 12.5 µM) | p-nitrophenol glucuronidation activity (UGT [1]; 25 µM) | p-nitrophenol glucuronidation, % of Control (UGT [1]; 25 µM) | CYP3A catalytic activity (CYP3A [2]; 12.5 µM) | CYP3A catalytic activity (CYP3A [2]; 25 µM) | activity at 30 min, 12.5 µM (CYP3A [2]; [9]) | activity at 30 min, 25 µM (CYP3A [2]; [10]) | CYP3A catalytic activity (CYP3A [3]; 12.5 µM) | CYP3A catalytic activity (CYP3A [3]; 25 µM) | activity at 30 min, 12.5 µM (CYP3A [3]; 12.5 µM) | activity at 30 min, 25 µM (CYP3A [3]; 25 µM) | CYP3A catalytic activity (CYP3A [4]; 12.5 µM) | CYP3A catalytic activity (CYP3A [4]; 25 µM) | activity at 30 min, 12.5 µM (CYP3A [4]; 12.5 µM) | activity at 30 min, 25 µM (CYP3A [4]; 25 µM) | p-nitrophenol glucuronidation activity (UGT [5]; 12.5 µM) | p-nitrophenol glucuronidation, % of Control (UGT [5]; 12.5 µM) | p-nitrophenol glucuronidation activity (UGT [5]; 25 µM) | p-nitrophenol glucuronidation, % of Control (UGT [5]; 25 µM) | also measured
CC12CCC(CC1=O)C2(C)C (stereo not shown) [Camphor, camphor] | 4.01 ± 0.33 µmol/mg/min | 102.42 ± 1.78% | 3.97 ± 0.33 µmol/mg/min | 101.32 ± 1.34% | 0.68 ± 0.02 nmol/mg/min | 0.68 ± 0.03 nmol/mg/min | 97.1 ± 2.15% | 96.3 ± 3.21% | 0.40 ± 0.03 nmol/mg/min | 0.41 ± 0.03 nmol/mg/min | 102 ± 2.05% | 104 ± 2.57% | 0.63 ± 0.03 nmol/mg/min | 0.59 ± 0.04 nmol/mg/min | 101 ± 3.99% | 95 ± 1.81% | 2.42 ± 0.08 µmol/mg/min | 104.80 ± 1.79% | 2.31 ± 0.09 µmol/mg/min | 100.10 ± 2.45% | p-nitrophenol glucuronidation activity (UGT [6]; 12.5 µM): 2.62 ± 0.09 µmol/mg/min; p-nitrophenol glucuronidation, % of Control (UGT [6]; 12.5 µM): 102.59 ± 1.43%; p-nitrophenol glucuronidation activity (UGT [6]; 25 µM): 2.72 ± 0.24 µmol/mg/min; p-nitrophenol glucuronidation, % of Control (UGT [6]; 25 µM): 106.26 ± 6.99%
CC12CCC(CC1)C(C)(C)O2 [Cineole, 1,3,3-trimethyl-2-oxabicyclo [2.2.2]octane] | 4.09 ± 0.18 µmol/mg/min | 99.39 ± 1.71% | 4.18 ± 0.13 µmol/mg/min | 101.80 ± 1.12% | 0.68 ± 0.02 nmol/mg/min | 0.64 ± 0.02 nmol/mg/min | 101 ± 2.93% | 94.5 ± 2.69% | 0.40 ± 0.01 nmol/mg/min | 0.41 ± 0.01 nmol/mg/min | 99.5 ± 2.67% | 101.9 ± 0.29% | 0.64 ± 0.05 nmol/mg/min | 0.65 ± 0.05 nmol/mg/min | 101 ± 2.31% | 101 ± 1.62% | 2.00 ± 0.16 µmol/mg/min | 100.36 ± 1.99% | 1.90 ± 0.16 µmol/mg/min | 94.21 ± 1.51% | inhibition of p-nitrophenol glucuronidation (UGT [1]; 50 µM): failed to significantly inhibit; toxic dose following ingestion (mice): 50 mg/kg; toxic dose following ingestion (rats): 2500 mg/kg; activity at 30 min, 50 µM (CYP3A [2]; liver microsomes, pH 7.4, probe erythromycin, 50 µM, read-out: CYP3A catalytic activity, % of control): 89.3%; inhibition of CYP3A catalytic activity (CYP3A [3]; 50 µM): no major inhibition; share of total intrinsic clearance, 3-hydroxycineole [7]: 14%; share of total intrinsic clearance, 7-hydroxycineole [7]: 11%; share of total intrinsic clearance, conversion to 9-hydroxycineole [7]: 75%; inhibition of CYP3A catalytic activity (CYP3A [4]; 50 µM): no major inhibition; toxic dose following ingestion (humans): < 1000 mg/kg; inhibition of p-nitrophenol glucuronidation (UGT [5]; 50 µM): failed to significantly inhibit; toxic dose following ingestion (dogs): 1500 mg/kg; toxic dose following ingestion (possums): 3600 mg/kg; p-nitrophenol glucuronidation activity (UGT [6]; 12.5 µM): 2.46 ± 0.12 µmol/mg/min; p-nitrophenol glucuronidation, % of Control (UGT [6]; 12.5 µM): 90.25 ± 6.49%; p-nitrophenol glucuronidation activity (UGT [6]; 25 µM): 2.67 ± 0.21 µmol/mg/min; p-nitrophenol glucuronidation, % of Control (UGT [6]; 25 µM): 98.18 ± 9.75%; inhibition of p-nitrophenol glucuronidation (UGT [6]; 50 µM): failed to significantly inhibit
C[C@]12CC(=O)C[C@@]1(C)CC(=O)C2 [cis-1,5-dimethylbicyclo[3.3.0]octane-3,7-dione] | 3.77 ± 0.28 µmol/mg/min | 93.15 ± 4.58% | 3.78 ± 0.28 µmol/mg/min | 93.30 ± 4.13% | 0.71 ± 0.03 nmol/mg/min | 0.70 ± 0.03 nmol/mg/min | 101 ± 2.7% | 99.64 ± 0.93% | 0.41 ± 0.02 nmol/mg/min | 0.40 ± 0.03 nmol/mg/min | 106 ± 1.42% | 103 ± 6.11% | 0.59 ± 0.04 nmol/mg/min | 0.60 ± 0.06 nmol/mg/min | 98.3 ± 3.1% | 99.3 ± 1% | 2.56 ± 0.11 µmol/mg/min | 102.19 ± 2.82% | 2.40 ± 0.15 µmol/mg/min | 95.72 ± 2.42% | p-nitrophenol glucuronidation activity (UGT [6]; 12.5 µM): 2.58 ± 0.03 µmol/mg/min; p-nitrophenol glucuronidation, % of Control (UGT [6]; 12.5 µM): 98.32 ± 3.38%; p-nitrophenol glucuronidation activity (UGT [6]; 25 µM): 2.56 ± 0.02 µmol/mg/min; p-nitrophenol glucuronidation, % of Control (UGT [6]; 25 µM): 97.79 ± 2.87%
COC(=O)[C@H]1CC[C@H](C(=O)OC)CC1 [dimethyl-trans-cyclohexane-1,4-dicarboxylate] | 3.96 ± 0.20 µmol/mg/min | 102.94 ± 4.63% | 3.92 ± 0.19 µmol/mg/min | 101.67 ± 0.92% | 0.72 ± 0.02 nmol/mg/min | 0.77 ± 0.05 nmol/mg/min | 100 ± 1.31% | 106 ± 4.88% | 0.39 ± 0.02 nmol/mg/min | 0.42 ± 0.03 nmol/mg/min | 102 ± 4.76% | 111 ± 6% | 0.64 ± 0.02 nmol/mg/min | 0.73 ± 0.06 nmol/mg/min | 102 ± 2.42% | 116 ± 5.35% | 2.43 ± 0.06 µmol/mg/min | 107.00 ± 0.42% | 2.73 ± 0.12 µmol/mg/min | 120.23 ± 8.23 % | p-nitrophenol glucuronidation activity (UGT [6]; 12.5 µM): 2.71 ± 0.13 µmol/mg/min; p-nitrophenol glucuronidation, % of Control (UGT [6]; 12.5 µM): 90.77 ± 2.49%; p-nitrophenol glucuronidation activity (UGT [6]; 25 µM): 2.83 ± 0.20 µmol/mg/min; p-nitrophenol glucuronidation, % of Control (UGT [6]; 25 µM): 94.83 ± 5.80%
Cc1ncc2n1-c1ccc(Cl)cc1C(c1ccccc1F)=NC2 [midazolam] |  |  |  |  |  |  |  |  |  |  |  |  |  |  |  |  |  |  |  |  | Vmax of 1′-hydroxylmiazolam, fold lower in possum than in human liver microsomes (CYP3A [8]): 8 fold; Vmax of 4-hydroxymidazolam, fold lower in possum than in human liver microsomes (CYP3A [8]): 23 fold
